From ChEMBL document CHEMBL1201862, “PubChem BioAssay data set” (2004)
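Each compound was tested at five concentrations against cells in 96-well plates for 48 hours. The concentration for 50% growth inhibition is given as GI50.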 Active and inactive are the calls of the source. Rule as the data show it: active = GI50 up to about 1.1 µM and inactive = higher.

Legend:
Assay in all cases: NCI tumour cell line growth inhibition, 48 h
NCI-H460 = tested on: NCI-H460
NCI-H23 = tested on: NCI-H23
U-251 = tested on: U-251
Malme-3M = tested on: Malme-3M
PC-3 = tested on: PC-3
ACHN = tested on: ACHN
SF-268 = tested on: SF-268
KM12 = tested on: KM12
HT-29 = tested on: HT-29
DU-145 = tested on: DU-145
SF-539 = tested on: SF-539
MCF7 = tested on: MCF7
TK-10 = tested on: TK-10
HOP-62 = tested on: HOP-62
UO-31 = tested on: UO-31
MOLT-4 = tested on: MOLT-4
EKVX = tested on: EKVX
SK-MEL-2 = tested on: SK-MEL-2
IGROV-1 = tested on: IGROV-1
OVCAR-3 = tested on: OVCAR-3
MDA-MB-435 = tested on: MDA-MB-435
UACC-257 = tested on: UACC-257
SN12C = tested on: SN12C
NCI-H226 = tested on: NCI-H226
SK-MEL-28 = tested on: SK-MEL-28
HCC 2998 = tested on: HCC 2998
OVCAR-5 = tested on: OVCAR-5
K562 = tested on: K562
SK-MEL-5 = tested on: SK-MEL-5
Hs-578T = tested on: Hs-578T
A549 = tested on: A549
OVCAR-4 = tested on: OVCAR-4
786-0 = tested on: 786-0
HCT-15 = tested on: HCT-15
UACC-62 = tested on: UACC-62
SR = tested on: SR
LOX IMVI = tested on: LOX IMVI
SNB-19 = tested on: SNB-19
SNB-75 = tested on: SNB-75
T47D = tested on: T47D
SW-620 = tested on: SW-620
MDA-MB-231 = tested on: MDA-MB-231
MDA-N = tested on: MDA-N
COLO 205 = tested on: COLO 205
HCT-116 = tested on: HCT-116
RPMI-8226 = tested on: RPMI-8226
NCI/ADR-RES = tested on: NCI/ADR-RES
M14 = tested on: M14
SK-OV-3 = tested on: SK-OV-3
HOP-92 = tested on: HOP-92
OVCAR-8 = tested on: OVCAR-8
NCI-H522 = tested on: NCI-H522
CAKI-1 = tested on: CAKI-1
SF-295 = tested on: SF-295

With `CC1(C)C(=S)C(C)(C)C1=S` the GI50 (NCI-H460) was > 100 µM (inactive), the GI50 (NCI-H23) was > 100 µM (inactive) and the GI50 (U-251) was > 100 µM (inactive). For the same compound, the GI50 (Malme-3M) was > 100 µM (inactive), the GI50 (PC-3) was > 100 µM (inactive) and the GI50 (ACHN) was > 100 µM (inactive). For the same compound, the GI50 (SF-268) was > 100 µM (inactive), the GI50 (KM12) was > 100 µM (inactive) and the GI50 (HT-29) was > 100 µM (inactive). For the same compound, the GI50 (DU-145) was > 100 µM (inactive), the GI50 (SF-539) was > 100 µM (inactive) and the GI50 (MCF7) was > 100 µM (inactive). The GI50 (TK-10) was > 100 µM (inactive), the GI50 (HOP-62) was > 100 µM (inactive) and the GI50 (UO-31) was > 100 µM (inactive). The GI50 (MOLT-4) was > 100 µM (inactive), the GI50 (EKVX) was > 100 µM (inactive) and the GI50 (SK-MEL-2) was > 100 µM (inactive). The GI50 (IGROV-1) was > 100 µM (inactive), the GI50 (OVCAR-3) was > 100 µM (inactive) and the GI50 (MDA-MB-435) was > 100 µM (inactive). For the same compound, the GI50 (UACC-257) was > 100 µM (inactive), the GI50 (SN12C) was > 100 µM (inactive) and the GI50 (NCI-H226) was > 100 µM (inactive). For the same compound, the GI50 (SK-MEL-28) was > 100 µM (inactive), the GI50 (HCC 2998) was > 100 µM (inactive) and the GI50 (OVCAR-5) was > 100 µM (inactive). For the same compound, the GI50 (K562) was > 100 µM (inactive), the GI50 (SK-MEL-5) was > 100 µM (inactive) and the GI50 (Hs-578T) was > 100 µM (inactive). The GI50 (A549) was > 100 µM (inactive), the GI50 (OVCAR-4) was > 100 µM (inactive) and the GI50 (786-0) was > 100 µM (inactive). For the same compound, the GI50 (HCT-15) was greater than 100 µM, the GI50 (UACC-62) was > 100 µM (inactive) and the GI50 (SR) was > 100 µM (inactive). The GI50 (LOX IMVI) was > 100 µM (inactive), the GI50 (SNB-19) was > 100 µM (inactive) and the GI50 (SNB-75) was > 100 µM (inactive). The GI50 (T47D) was > 100 µM (inactive), the GI50 (SW-620) was > 100 µM (inactive) and the GI50 (MDA-MB-231) was > 100 µM (inactive). For the same compound, the GI50 (MDA-N) was > 100 µM (inactive), the GI50 (COLO 205) was > 100 µM (inactive) and the GI50 (HCT-116) was > 100 µM (inactive). The GI50 (RPMI-8226) was > 100 µM (inactive), the GI50 (NCI/ADR-RES) was > 100 µM (inactive) and the GI50 (M14) was > 100 µM (inactive). For the same compound, the GI50 (SK-OV-3) was > 100 µM (inactive).

`Cc1ccc(-c2ccc(Nc3c4ccccc4nc4ccccc34)cc2)cn1` was tested, and the GI50 (NCI-H460) was 1.44 µM (inactive), the GI50 (NCI-H23) was 4.66 µM (inactive) and the GI50 (PC-3) was 4.97 µM (inactive). The GI50 (ACHN) was 2.32 µM (inactive), the GI50 (SF-268) was 8.75 µM (inactive) and the GI50 (KM12) was 3.8 µM (inactive). The GI50 (HT-29) was 2.13 µM (inactive), the GI50 (DU-145) was 3.77 µM (inactive) and the GI50 (HOP-92) was 0.322 µM (active). The GI50 (SF-539) was 3.85 µM (inactive), the GI50 (MCF7) was 2.26 µM (inactive) and the GI50 (TK-10) was 9.14 µM (inactive). For the same compound, the GI50 (HOP-62) was 1.82 µM (inactive), the GI50 (OVCAR-8) was 4.81 µM (inactive) and the GI50 (UO-31) was 3.13 µM (inactive). For the same compound, the GI50 (MOLT-4) was 1.03 µM (active), the GI50 (EKVX) was 6.64 µM (inactive) and the GI50 (SK-MEL-2) was 1.87 µM (inactive). The GI50 (IGROV-1) was 5.43 µM (inactive), the GI50 (OVCAR-3) was 2.63 µM (inactive) and the GI50 (MDA-MB-435) was 4.43 µM (inactive). For the same compound, the GI50 (UACC-257) was 7.13 µM (inactive), the GI50 (SN12C) was 3.89 µM (inactive) and the GI50 (SK-MEL-28) was 2.51 µM (inactive). For the same compound, the GI50 (NCI-H522) was 2.83 µM (inactive), the GI50 (HCC 2998) was 29 µM (inactive) and the GI50 (OVCAR-5) was 19.5 µM (inactive). The GI50 (K562) was 3.66 µM (inactive), the GI50 (SK-MEL-5) was 4.41 µM (inactive) and the GI50 (Hs-578T) was 5 µM (inactive). For the same compound, the GI50 (A549) was 2.3 µM (inactive), the GI50 (786-0) was 1.66 µM (inactive) and the GI50 (HCT-15) was 3.75 µM. For the same compound, the GI50 (UACC-62) was 3.08 µM (inactive), the GI50 (CAKI-1) was 2.72 µM (inactive) and the GI50 (SF-295) was 2.37 µM (inactive). The GI50 (SR) was 2.07 µM (inactive), the GI50 (LOX IMVI) was 2.71 µM (inactive) and the GI50 (SNB-19) was 5.86 µM (inactive). The GI50 (T47D) was 2.17 µM (inactive), the GI50 (SW-620) was 4.01 µM (inactive) and the GI50 (MDA-N) was 6.07 µM (inactive). The GI50 (COLO 205) was 3.37 µM (inactive), the GI50 (HCT-116) was 2.91 µM (inactive) and the GI50 (RPMI-8226) was 1.92 µM (inactive). The GI50 (NCI/ADR-RES) was 8.89 µM (inactive) and the GI50 (M14) was 2.95 µM (inactive).

For `COc1cc(/C=C2\CN(C)CC3=C2N=C(S)NC3c2cc(OC)c(OC)c(OC)c2)cc(OC)c1OC` (stereo not drawn), the GI50 (NCI-H460) was 54.5 µM (inactive), the GI50 (Malme-3M) was > 100 µM (inactive) and the GI50 (PC-3) was 38.3 µM (inactive). For the same compound, the GI50 (ACHN) was 91.2 µM (inactive), the GI50 (SF-268) was 94.4 µM (inactive) and the GI50 (HT-29) was 67.9 µM (inactive). For the same compound, the GI50 (DU-145) was > 100 µM (inactive), the GI50 (HOP-92) was > 100 µM (inactive) and the GI50 (HOP-62) was 69.7 µM (inactive). For the same compound, the GI50 (OVCAR-8) was 83.2 µM (inactive), the GI50 (MOLT-4) was 57.4 µM (inactive) and the GI50 (EKVX) was 32.6 µM (inactive). The GI50 (SK-MEL-2) was > 100 µM (inactive), the GI50 (IGROV-1) was 71.8 µM (inactive) and the GI50 (OVCAR-3) was > 100 µM (inactive). For the same compound, the GI50 (UACC-257) was > 100 µM (inactive), the GI50 (SN12C) was 67.9 µM (inactive) and the GI50 (NCI-H522) was 54.7 µM (inactive). For the same compound, the GI50 (SK-MEL-5) was 17.9 µM (inactive), the GI50 (Hs-578T) was 30.5 µM (inactive) and the GI50 (A549) was 49.9 µM (inactive). The GI50 (OVCAR-4) was 56 µM (inactive), the GI50 (786-0) was 39.2 µM (inactive) and the GI50 (HCT-15) was 80.2 µM. The GI50 (UACC-62) was 20.9 µM (inactive), the GI50 (SF-295) was 65.5 µM (inactive) and the GI50 (SR) was > 100 µM (inactive). The GI50 (LOX IMVI) was 36.2 µM (inactive), the GI50 (SNB-75) was 28.6 µM (inactive) and the GI50 (T47D) was > 100 µM (inactive). For the same compound, the GI50 (SW-620) was > 100 µM (inactive), the GI50 (MDA-MB-231) was 61.9 µM (inactive) and the GI50 (MDA-N) was 50.2 µM (inactive). For the same compound, the GI50 (COLO 205) was 79.8 µM (inactive), the GI50 (NCI/ADR-RES) was > 100 µM (inactive) and the GI50 (M14) was 51.2 µM (inactive). For the same compound, the GI50 (SK-OV-3) was > 100 µM (inactive).
